Tests used:
rat fat cells = test: Lipogenesis: conversion of glucose to toluene-soluble products in isolated rat fat cells; type: cell-based; conditions: for Concentration [μM] at which 25% of the max. HI action is reached (lipogenesis): 25% of the maximum human insulin action; for Lipogenesis % of the max. HI action: 90 min at 37° C., D-[3-3H]glucose, human insulin (HI) = 100%
Procedure: (§1) The biological activity of the peptides of formula I according to the invention is determined with the aid of preparatively isolated rat fat cells and diaphragm fragments.
(§2) Rat fat cells were prepared as follows: Fatty tissue of the epididymis (Wistar rat, 160-180 g, no feed restriction) is digested with collagenase and the resulting isolated fat cells are washed several times by flotation.
This test determines the insulin-stimulatable conversion of glucose to toluene-soluble products (triglycerides, phospholipids, fatty acids), requiring the glucose transport and the triglyceride (glycerol-3-P synthesis, esterification)/phospholipid/fatty acid synthesis, including the insulin signal transmission cascade.
Rat fat cells in KRH buffer are incubated for 90 min at 37° C. with D-[3-^3 H]glucose (0.2 mM or 1 mM final concentration) in the presence or absence of insulin or peptides according to the invention. By the addition of a toluene-soluble scintillation cocktail, the cells are digested and the lipids separated from water-soluble products and the incubation medium. After phase separation, the radioactivity incorporated into lipids is determined by scintillation measurement directly without removal of the aqueous phase ([^3 H]lipid [dpm×10^-3 ]).
(§3) The action of human insulin (HI) is given a value of 100%. The concentration data of the peptides according to the invention used are based on the concentration at which 25% or 20% of the maximum HI action is reached.

[1] = tested on: plasma membrane vesicles from rat fat cells; test: Glucose transport activity in isolated plasma membrane vesicles; type: biochemical; conditions: for Concentration [μM] at which 20% of the max. HI action is reached (glucose transport): 20% of the maximum human insulin action; for Glucose transport % of the max. HI action: 30 min at 25° C., then 10 sec with 50 μM D-[3-3H]glucose, human insulin (HI) = 100%
Procedure: as §1, §2
C) Glucose transport activity
Isolated plasma membrane vesicles are obtained from rat fat cells by washing the fat cells twice in homogenization buffer (20 mM trihydroxyaminomethane (Tris)/HCl, pH 7.4, 1 mM, 4° C., EDTA, 0.25M sucrose) and then homogenizing them in 20 ml of the same buffer (glass homogenizer with Teflon pestle).
The homogenate is centrifuged (16,000×g, 15 min) and the sediment is suspended in the same buffer and centrifuged again. The sediment is suspended in 5 ml of homogenization buffer and layered onto a sucrose cushion (1.12M sucrose, 20 mM Tris/HCl, pH 7.4, 1 mM EDTA); after centrifugation (100,000×g, 70 min), the interphase containing the plasma membrane vesicles is removed with a syringe, diluted with 45 ml of buffer and centrifuged again (48,000×g, 45 min). The sediment is suspended in 10 ml of buffer, centrifuged again and resuspended in 3 ml of buffer.
Isolated plasma membrane vesicles are incubated for 30 min at 25° C. in the presence or absence of insulin or the peptides according to the invention. The vesicles are then incubated for 10 sec at 25° C. with 50 μM D-[3-^3 H]glucose and […] of the same specific radioactivity. The mixtures are rapidly filtered with suction on nitrocellulose filters. The filters are washed copiously and dried. Their radioactivity is determined by liquid scintillation measurement. The specific transport (D-[^3 H]glucose/L-[^4 C]glucose [dpm×10^-3 ]) is calculated as the difference between the [^3 H] and [^14 C] radioactivity.
as §3

rat diaphragm fragments = test: Glycogenesis: glycogen synthesis in rat diaphragm fragments; type: cell-based; conditions: for Concentration [μM] at which 25% of the max. HI action is reached (glycogenesis): 25% of the maximum human insulin action; for Glycogenesis % of the max. HI action: 15 min at 37° C., 50 μM D-[U-14C]glucose, human insulin (HI) = 100%
Procedure: as §1
Preparation of rat diaphragm fragments: Small tissue fragments (5 mm diameter) are punched out of hemidiaphragms (Wistar rat, 60-70 g, no feed restriction) which have been washed several times.
This test determines the insulin-stimulatable glycogen synthesis in muscle cells, comprising the glucose transport via the plasma membrane and the conversion of the glucose to glycogen, including the functional insulin signal transmission cascade.
Diaphragm fragments are incubated for 15 min at 37° C. in Krebs-Ringer-Henseleit buffer (KRH buffer) with 50 μM D-[U-^14 C]glucose in the presence or absence of insulin or the peptides according to the invention. After the medium has been filtered with suction, the tissue fragments are intensively washed, frozen at -70° C. and then homogenized at 2° C. in a Polytron pulverizer. The homogenate is centrifuged (2000 g) and the supernatant is pipetted onto filter paper. To determine the glycogen formed, the filters are transferred into trichloroacetic acid (TCA) (5%), washed with ethanol and acetone and dried and their radioactivity is determined via scintillation measurement ([^14 C]glycogen [dpm×10^-3 ]).
as §3

Substance | Concentration [μM] at which 25% of the max. HI action is reached (lipogenesis) (rat fat cells) | Lipogenesis % of the max. HI action (rat fat cells) | Concentration [μM] at which 20% of the max. HI action is reached (glucose transport) [1] | Glucose transport % of the max. HI action [1] | Concentration [μM] at which 25% of the max. HI action is reached (glycogenesis) (rat diaphragm fragments) | Glycogenesis % of the max. HI action (rat diaphragm fragments)
Acetyl--L--Tyr--L--Cys--L--Asn--NH--CH2 --CH2 OH [Example 11] | 200 µM | 36% | 260 µM | 40% | 240 µM | 45%
H--L--Cys--L--Asn--NH--CH2 --CH2 OH [Example 5] | – | 21% | 600 µM | 25% | – | 16%
H--L--Cys--L--Tyr--NH--CH2 --CH2 OH [Example 6] | – | 17% | 750 µM | 24% | 480 µM | 32%
H--L--Tyr--L--Cys--NH--(CH2)4 --NH2 [Example 7] | – | 18% | – | 10% | – | 2%
H--L--Asn--L--Cys--L--Tyr--NH--CH2 --CH2 OH [Example 3] | 375 µM | 31% | 225 µM | 38% | 285 µM | 42%
H--L--Tyr--L--Cys--L--Asn--NH--CH2 --CH2 --NH--gluconic acid [Example 9] | – | 12% | – | 15% | – | 11%
H--D--Tyr--L--Cys--L--Asn--NH--CH2 --CH2 OH [Example 4] | 410 µM | 31% | 260 µM | 38% | – | 23%
H--L--Tyr--L--Cys--L--Asn--NH--(CH2)2 --O--PO(OH)--O(CH2)2 --CN [Example 13] | 120 µM | 33% | 140 µM | 36% | 100 µM | 31%
H--L--Tyr--L--Cys--L--Asn--NH--(CH2)2 --O--PO(OH)--O--6Manα1--2Manα1--O--CH3 [Example 15] | 142 µM | 35% | 122 µM | 32% | 139 µM | 29%
H--L--Tyr--L--Cys--NH--CH2 --CH2 --NH2 [Example 2] | 500 µM | 32% | 350 µM | 40% | 650 µM | 28%
L--Tyr--L--Cys--L--Asn--NH--(CH2)2 --O--PO(OH)--O--6Manα1--2--Manα1--6Manα1--O--CH3 [Example 16] | 125 µM | 24% | 152 µM | 29% | 135 µM | 25%
H--(3--(thien--2--yl)--L--Ala)--L--Cys--L--Asn--OH [Example 8] | 450 µM | 26% | 410 µM | 25% | 375 µM | 31%
H--L--Tyr--L--Cys--L--Asn--NH--CH2 --CH2 --NH2 [Example 10] | 330 µM | 30% | 300 µM | 42% | 450 µM | 25%
H--L--Tyr--L--Cys--L--Asn--OH [Example 12] | 750 µM | 26% | 880 µM | 20% | – | 15%

Source: US5622934A, “Peptides with an insulin-like action” (priority 1991, dated 1997)
